Reference: PubChem BioAssay AID2060513 (Molecular Pharmacology Branch, DTP, NCI, 2025)

Test system: 299254-011-R-J1-PDC complex spheroids viability
Test: Anticancer human tumor 299254-011-R-J1-PDC patient-derived melanoma cell line growth inhibition [GQUAD]
Settings: for IC50: curve of first compound; for viability, T/C: stronger effect = lower value
Procedure, shortened: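 Tumor cells were grown as complex spheroids with HUVEC endothelial cells and mesenchymal stem cells as stroma. G-quadruplex stabilizers were combined with targeted agents over half-log dilutions from near the clinical Cmax, or from 10 microM.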

[1] = second compound 0.0316 µM, first compound 0.0316 µM
[2] = second compound 0.0316 µM, first compound 0.1 µM
[3] = second compound 0.0316 µM, first compound 0.316 µM
[4] = second compound 0.0316 µM, first compound 1 µM
[5] = second compound 0.0316 µM, first compound 3.16 µM
[6] = second compound 0.0316 µM, first compound 10 µM
[7] = second compound 0.1 µM, first compound 0.0316 µM
[8] = second compound 0.1 µM, first compound 0.1 µM
[9] = second compound 0.1 µM, first compound 0.316 µM
[10] = second compound 0.1 µM, first compound 1 µM
[11] = second compound 0.1 µM, first compound 3.16 µM
[12] = second compound 0.1 µM, first compound 10 µM
[13] = second compound 0.316 µM, first compound 0.0316 µM
[14] = second compound 0.316 µM, first compound 0.1 µM
[15] = second compound 0.316 µM, first compound 0.316 µM
[16] = second compound 0.316 µM, first compound 1 µM
[17] = second compound 0.316 µM, first compound 3.16 µM
[18] = second compound 0.316 µM, first compound 10 µM
[19] = second compound 1 µM, first compound 0.0316 µM
[20] = second compound 1 µM, first compound 0.1 µM
[21] = second compound 1 µM, first compound 0.316 µM
[22] = second compound 1 µM, first compound 1 µM
[23] = second compound 1 µM, first compound 3.16 µM
[24] = second compound 1 µM, first compound 10 µM
[25] = second compound 3.16 µM, first compound 0.0316 µM
[26] = second compound 3.16 µM, first compound 0.1 µM
[27] = second compound 3.16 µM, first compound 0.316 µM
[28] = second compound 3.16 µM, first compound 1 µM
[29] = second compound 3.16 µM, first compound 3.16 µM
[30] = second compound 3.16 µM, first compound 10 µM
[31] = second compound 10 µM, first compound 0.0316 µM
[32] = second compound 10 µM, first compound 0.1 µM
[33] = second compound 10 µM, first compound 0.316 µM
[34] = second compound 10 µM, first compound 1 µM
[35] = second compound 10 µM, first compound 3.16 µM
[36] = second compound 10 µM, first compound 10 µM
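Note: spheroids exposed to the agents for seven days before readout.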
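Throughout, for viability, T/C: percent viability relative to DMSO vehicle control wells = 100%.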

With `COc1ncnc(C2CC2)c1-c1ncc2cnn(Cc3ccc(-c4nc(C(F)(F)F)cn4C(C)C)cc3)c2n1` + Cc1cnc(CNC(=O)c2c(=O)c3ccc(N4CCCN(C)CC4)nc3n3c2sc2ccccc23)cn1 the IC50 (second compound 0.0316 µM) was over 10000 nM, the IC50 (second compound 0.1 µM) was over 10000 nM and the IC50 (second compound 0.316 µM) was over 10000 nM. The IC50 (second compound 1 µM) was over 10000 nM, the IC50 (second compound 3.16 µM) was over 10000 nM and the IC50 (second compound 10 µM) was 3440 nM. For the same molecule, the viability, T/C [1] was 92.3%, the viability, T/C [2] was 98.2% and the viability, T/C [3] was 84.8%. For the same molecule, the viability, T/C [4] was 88.6%, the viability, T/C [5] was 110% and the viability, T/C [6] was 126%. The viability, T/C [7] was 113%, the viability, T/C [8] was 97.9% and the viability, T/C [9] was 81.5%. The viability, T/C [10] was 97.8%, the viability, T/C [11] was 91.9% and the viability, T/C [12] was 108%. It also gave a viability, T/C [13] of 87.3%, a viability, T/C [14] of 88.9% and a viability, T/C [15] of 120%. It also gave a viability, T/C [16] of 101%, a viability, T/C [17] of 93.2% and a viability, T/C [18] of 97.8%. It also gave a viability, T/C [19] of 68.7%, a viability, T/C [20] of 102% and a viability, T/C [21] of 90.1%. For the same molecule, the viability, T/C [22] was 88.1%, the viability, T/C [23] was 102% and the viability, T/C [24] was 76.8%. It also gave a viability, T/C [25] of 87.4%, a viability, T/C [26] of 69.8% and a viability, T/C [27] of 76.4%. The viability, T/C [28] was 70.9%, the viability, T/C [29] was 77.3% and the viability, T/C [30] was 79%. It also gave a viability, T/C [31] of 38.5%, a viability, T/C [32] of 24.7% and a viability, T/C [33] of 68%. For the same molecule, the viability, T/C [34] was 77.7%, the viability, T/C [35] was 63.6% and the viability, T/C [36] was 0.43%.

In the case of `Cc1[nH]c2ccccc2c1CCNCc1ccc(/C=C/C(=O)NO)cc1` + Cc1cnc(CNC(=O)c2c(=O)c3ccc(N4CCCN(C)CC4)nc3n3c2sc2ccccc23)cn1, the IC50 (second compound 0.0316 µM) is reported as 139 nM, the IC50 (second compound 0.1 µM) is reported as 172 nM and the IC50 (second compound 0.316 µM) is reported as 101 nM. It also gave an IC50 (second compound 1 µM) of 48.4 nM, an IC50 (second compound 3.16 µM) of 45.5 nM and an IC50 (second compound 10 µM) of under 0.999 nM. For the same molecule, the viability, T/C (second compound 0.0316 µM, first compound 0.000999 µM) was 92.3%, the viability, T/C (second compound 0.0316 µM, first compound 0.00316 µM) was 84.4% and the viability, T/C (second compound 0.0316 µM, first compound 0.00999 µM) was 94.6%. It also gave a viability, T/C [1] of 80.3%, a viability, T/C (second compound 0.0316 µM, first compound 0.0999 µM) of 65.2% and a viability, T/C [3] of 14.4%. For the same molecule, the viability, T/C (second compound 0.1 µM, first compound 0.000999 µM) was 92.7%, the viability, T/C (second compound 0.1 µM, first compound 0.00316 µM) was 106% and the viability, T/C (second compound 0.1 µM, first compound 0.00999 µM) was 97.1%. For the same molecule, the viability, T/C [7] was 80.7%, the viability, T/C (second compound 0.1 µM, first compound 0.0999 µM) was 87.6% and the viability, T/C [9] was 10.7%. It also gave a viability, T/C (second compound 0.316 µM, first compound 0.000999 µM) of 107%, a viability, T/C (second compound 0.316 µM, first compound 0.00316 µM) of 92.4% and a viability, T/C (second compound 0.316 µM, first compound 0.00999 µM) of 97.3%. For the same molecule, the viability, T/C [13] was 91.3%, the viability, T/C (second compound 0.316 µM, first compound 0.0999 µM) was 50.4% and the viability, T/C [15] was 10.3%. The viability, T/C (second compound 1 µM, first compound 0.000999 µM) was 86.5%, the viability, T/C (second compound 1 µM, first compound 0.00316 µM) was 103% and the viability, T/C (second compound 1 µM, first compound 0.00999 µM) was 79.7%. For the same molecule, the viability, T/C [19] was 63.4%, the viability, T/C (second compound 1 µM, first compound 0.0999 µM) was 28.6% and the viability, T/C [21] was 4.65%. It also gave a viability, T/C (second compound 3.16 µM, first compound 0.000999 µM) of 82.8%, a viability, T/C (second compound 3.16 µM, first compound 0.00316 µM) of 77.7% and a viability, T/C (second compound 3.16 µM, first compound 0.00999 µM) of 68.4%. It also gave a viability, T/C [25] of 63.5%, a viability, T/C (second compound 3.16 µM, first compound 0.0999 µM) of 28% and a viability, T/C [27] of 0.2%. The viability, T/C (second compound 10 µM, first compound 0.000999 µM) was 26.3%, the viability, T/C (second compound 10 µM, first compound 0.00316 µM) was 8.63% and the viability, T/C (second compound 10 µM, first compound 0.00999 µM) was 0.47%. It also gave a viability, T/C [31] of 0.44%, a viability, T/C (second compound 10 µM, first compound 0.0999 µM) of 0.35% and a viability, T/C [33] of 0.26%.

Molecule `O=C(NO)c1cnc(N2CCN(S(=O)(=O)c3ccc4ccccc4c3)CC2)nc1` + Cc1cnc(CNC(=O)c2c(=O)c3ccc(N4CCCN(C)CC4)nc3n3c2sc2ccccc23)cn1 has an IC50 (second compound 0.0316 µM) of 201 nM, an IC50 (second compound 0.1 µM) of 227 nM and an IC50 (second compound 0.316 µM) of 228 nM. It also gave an IC50 (second compound 1 µM) of 210 nM, an IC50 (second compound 3.16 µM) of 212 nM and an IC50 (second compound 10 µM) of under 31.6 nM. The viability, T/C [1] was 112%, the viability, T/C [2] was 94.8% and the viability, T/C [3] was 20.9%. The viability, T/C [4] was 0.93%, the viability, T/C [5] was 0.18% and the viability, T/C [6] was 0.19%. The viability, T/C [7] was 107%, the viability, T/C [8] was 97.8% and the viability, T/C [9] was 30.7%. It also gave a viability, T/C [10] of 1.22%, a viability, T/C [11] of 0.15% and a viability, T/C [12] of 0.24%. For the same molecule, the viability, T/C [13] was 102%, the viability, T/C [14] was 109% and the viability, T/C [15] was 27.9%. The viability, T/C [16] was 0.56%, the viability, T/C [17] was 0.14% and the viability, T/C [18] was 0.21%. The viability, T/C [19] was 93.6%, the viability, T/C [20] was 83% and the viability, T/C [21] was 31.8%. The viability, T/C [22] was 1.83%, the viability, T/C [23] was 0.13% and the viability, T/C [24] was 0.18%. For the same molecule, the viability, T/C [25] was 74.8%, the viability, T/C [26] was 91.3% and the viability, T/C [27] was 32.3%. For the same molecule, the viability, T/C [28] was 0.19%, the viability, T/C [29] was 0.15% and the viability, T/C [30] was 0.16%. The viability, T/C [31] was 45.8%, the viability, T/C [32] was 11.5% and the viability, T/C [33] was 0.31%. The viability, T/C [34] was 0.22%, the viability, T/C [35] was 0.22% and the viability, T/C [36] was 0.23%.
